Measurements published in patent US8809377B2, “Deubiquitinase inhibitors and methods for use of the same” (The Regents of the University of Michigan, priority 2010, dated 2014).

Key:
Z138 = assay: MTT cell growth, survival and apoptosis; settings: Z138 cell line
Description: Cells were seeded in a 96-well plate at 5,000 cells per well in the presence of increasing concentration of WP1130 for 3 days in a CO2 incubator at 37° C. 20 μL of 5 g/L 3-(4,5-dimethylthiazol-2-yl)-2,5-diphenyltetrazolium bromide (MTT) solution was added to each well for 2 h at 37° C. The cells were then lysed in 10% SDS-buffer and absorbance at 570 nm relative to a reference wavelength of 630 nm was determined with a microplate reader. The concentrations resulting in 50% inhibition of cell growth (IC50 values) were calculated.
Annexin V and propidium iodide (PI) staining were used to measure apoptosis in WP1130 treated cells. Briefly, 10^5/mL cells were harvested from tissue culture plates and centrifuged at 2500 rpm for 5 min at room temperature. Media supernatant was removed and cells were washed once in PBS. Cells were then resuspended in 0.4 ml of cold Annexin V binding buffer and Annexin V-FITC and propidium iodide were added. Samples were incubated at room temperature for 10 min in the dark, filtered through nylon mesh, and analyzed by flow cytometry using a FacScan analyzer (Becton-Dickinson, San Jose, Calif.).
Compounds were screened for DUB inhibitory and apoptotic activity in a panel of CML, myeloma and Mantle cell lymphoma cell lines, and compared to WP1130.

USP9X-UCH = target: T1, USP9X-UCH (Homo sapiens, UniProt Q93008); format: biochemical; settings: isolated Usp9x-UCH domain enzyme preparation
T1 sequence (Q93008 1557-1956 limits assumed): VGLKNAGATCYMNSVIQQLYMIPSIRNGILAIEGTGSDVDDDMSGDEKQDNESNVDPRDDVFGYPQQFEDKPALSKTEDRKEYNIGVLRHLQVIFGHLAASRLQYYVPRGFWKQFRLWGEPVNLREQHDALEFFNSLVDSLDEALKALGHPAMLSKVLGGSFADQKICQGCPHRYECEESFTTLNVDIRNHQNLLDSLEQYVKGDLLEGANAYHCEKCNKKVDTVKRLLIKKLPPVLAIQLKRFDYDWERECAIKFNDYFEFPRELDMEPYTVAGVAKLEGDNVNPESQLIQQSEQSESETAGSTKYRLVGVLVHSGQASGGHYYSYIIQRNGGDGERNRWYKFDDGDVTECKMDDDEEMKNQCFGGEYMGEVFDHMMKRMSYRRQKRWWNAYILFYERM
Description: Purified DUBs at optimal concentrations (USPS; 20 nM, UCH-L1; 20 nM, UCH-L3; 5 nM, USP9x; immunoprecipitated from 500 μg Z138 cell lysate) were incubated in DUB buffer containing WP1130, vehicle alone (DMSO) or 1 mM NEM (positive control for DUB inhibition) in a 100 μL reaction volume for 30 min. The reaction was initiated by the addition of 500 nM Ub-AMC and the release of AMC-fluorescence was recorded at ex/em 380/480 using a spectrofluorometer.
(§1) Cancer Res, 2010. 70(22): p. […] Blood, 2011. 117(11): p. […] Biochem Pharmacol, 2011. 82(4): p. […] Blood, 2007. 109(8): p. 3470-8.

Murine norovirus (MNV) = assay: Murine norovirus plaque assay; format: cell-based; settings: Norwalk virus, RAW264.7, MNV, murine macrophages (RAW264.7 or bone marrow derived), 5 μM, 30 min pre-treatment, 8-12 hr; read-out: Log inhibition by plaque assay
Description: Viral titers were determined by plaque assay.
Cells were treated with IFN-β as a positive anti-viral control.

USP9X = assay: Western / HA-UbVS labeling of USP9X in intact cells or lysates; format: cell-based; settings: for Usp9x activity (HA-UbVs labeling): CML cells treated for 4 hours; for Western Targets: USP9X: H929, WDT2, Z138 cell lines
cellular DUB activity = assay: DUB activity of lysates from treated cells (Ub-AMC, Ub chain disassembly); format: cell-based; set-up: suppression of cellular DUB activity (ubiquitin-AMC): dose or concentration left out as unconfirmed
Description: Cells were lysed in ice cold DUB buffer containing 50 mM Tris-HCl, pH 7.5, 0.5% NP-40, 5 mM MgCl2, 150 mM NaCl and 1 mM phenylmethylsulfonylfluoride. Briefly, 5 μg of clarified lysate from untreated or treated cells was incubated with 500 nM Ub-AMC in a 100 μL reaction volume at 37° C. and the release of AMC fluorescence was recorded at ex/em 380/480 using a spectrofluorometer. USP9x was immunoprecipitated from 500 μg of cell lysate and incubated in DUB buffer containing NEM, WP1130 or DMSO in a 100 μL reaction volume for 30 min. The reaction was initiated by the addition of 500 nM Ub-AMC and the release of AMC-fluorescence was recorded.
In vitro disassembly of purified polyubiquitin chains (K-48/K-63 linked) was performed as previously described. Five μg of lysate from untreated or WP1130 treated cells were prepared in DUB buffer and incubated with K48- or K-63 linked chains (1 μg) for 10 min at 37° C. The extent of chain disassembly was assessed by ubiquitin immunoblotting.
Inhibition of cellular deubiquitinases could lead to an increase in high molecular weight ubiquitinated proteins in the absence of proteasome inhibition. […] To directly assess the impact of WP1130 on DUB activity in treated cells, cell lysates from control and treated cells were incubated with ubiquitin-AMC and fluorescence generated as a consequence of substrate cleavage was measured as an indicator of DUB activity.
The effect of WP1130 treatment on in vitro deubiquitination/disassembly of purified K48-linked or K63-linked polyubiquitin chains was evaluated. Lysates from WP1130 treated (2 hr) or untreated cells were incubated with 1 μg of unanchored polyubiquitin chains for 5, 10 and 15 min at 37° C.

DUB activity = assay: Western / HA-UbVS labeling of DUB activity in intact cells; format: cell-based; settings: H929, WDT2, Z138 cell lines
Description: (§2) To assay for changes in activity of cellular deubiquitinase enzymes, leukemic cells were lysed in DUB buffer (50 mM Tris pH 7.4, 5 mM MgCl2, 150 mM NaCl) for 10 min at 4° C. The lysates were centrifuged at 20,000 RCF for 10 min and the supernatant was used for DUB labeling. Equal amounts of lysate were incubated with 500 ng of HA-UbVs for 1 hr at room temperature, followed by boiling in reducing sample buffer and resolving by SDS-PAGE. HA immunoblotting was used to detect DUB labeling.
as §2, with “Z138 and HEK293” for “leukemic”, “RFC” for “RCF”, “SDS-PAGE. After protein transfer to nitrocellulose membranes,” for “SDS-PAGE.”
as §1

| SMILES | MTT Activity relative to WP1130 (Z138) | AMC Assay on USP9X-UCH Activity relative to WP1130 (USP9X-UCH) | log reduction at 5 µM (Murine norovirus (MNV)) | further results |
| --- | --- | --- | --- | --- |
| CCC[C@H](NC(=O)/C(C#N)=C/c1cccc(F)n1)c1ccccc1 [Compound 40, (S,E)-2-Cyano-3-(6-fluoropyridin-2-yl)-N-(1-phenylbutyl)acrylamide] | Less sensitive | Less sensitive | 2 |  |
| Cc1cnc(Nc2ccc(N3CCN(C)CC3)cc2)nc1Nc1cccc(S(=O)(=O)NC(C)(C)C)c1 [TG101209, reference compound] |  |  |  | Usp9x activity (HA-UbVs labeling) (USP9X): none of the kinase inhibitors examined had significant Usp9x inhibitory activity |
| CCCC(NC(=O)/C(C#N)=C/c1cccc(F)n1)c1ccc(OCCN2CCOCC2)cc1 (stereo not drawn) [Compound 37, (E)-2-Cyano-3-(6-fluoropyridin-2-yl)-N-(1-(4-(2-morpholinoethoxy)phenyl)butyl)acrylamide] | Less sensitive | No inhibition | 1 |  |
| CCCC(NC(=O)/C(C#N)=C/c1cccc(Br)n1)c1ccc(OCCOCCOCCNC(=O)CCCC[C@@H]2SC[C@@H]3NC(=O)N[C@@H]32)cc1 (stereo partly drawn) [Compound 48, N-(2-(2-(2-(4-(1-((E)-3-(6-Bromopyridin-2-yl)-2-cyanoacrylamido)butyl)phenoxy)ethoxy)ethoxy)ethyl)-5-((3aS,4S,6aR)-2-oxohexahydro-1H-thieno[3,4-d]imidazol-4-yl)pentanamide] |  |  | 1.5 |  |
| CCC[C@H](NC(=O)/C(C#N)=C/c1ncc[nH]1)c1ccccc1 [Compound 42, (S,E)-2-Cyano-3-(1H-imidazol-2-yl)-N-(1-phenylbutyl)acrylamide] | Less sensitive | Less sensitive | 0.5 |  |
| CCN1C(=O)C=CC1=O [NEM, N-ethylmaleimide, reference compound] |  |  |  | Ub-AMC hydrolyzing activity of lysates from treated cells (cellular DUB activity; CML cells, WP1130 1-8 hours): completely blocked substrate hydrolysis; suppression of cellular DUB activity (ubiquitin-AMC) (cellular DUB activity; Z138 cells, within 1 hr): 80% |
| CCCC(NC(=O)/C(C#N)=C/c1cccc(Br)n1)c1ccc(OCCN(C)C)cc1 (stereo not drawn) [Compound 35, (E)-3-(6-Bromopyridin-2-yl)-2-cyano-N-(1-(4-(2-(dimethylamino)ethoxy)phenyl)butyl)acrylamide] | Less sensitive | Inconclusive | 2 |  |
| Cc1ccc(NC(=O)c2ccc(CN3CCN(C)CC3)cc2)cc1Nc1nccc(-c2cccnc2)n1 [imatinib, reference compound] |  |  |  | Usp9x activity (HA-UbVs labeling) (USP9X): none of the kinase inhibitors examined had significant Usp9x inhibitory activity |
| CCCC(NC(=O)/C(C#N)=C/c1cccc(Br)n1)c1ccc(OC)cc1 (stereo not drawn) [Compound 8, (E)-3-(6-bromopyridin-2-yl)-2-cyano-N-(1-(4-methoxyphenyl)butyl)acrylamide] |  |  |  | Western Targets: DUB activity (DUB activity): USP9X and DUB activity: no effect; Western Targets: USP9X (USP9X): USP9X and DUB activity: no effect |
| CCCC(NC(=O)/C(C#N)=C/c1ncc[nH]1)c1ccc(OCOC)cc1 (stereo not drawn) [Compound 10, (E)-2-Cyano-3-(1H-imidazol-2-yl)-N-(1-(4-(methoxymethoxy)phenyl)butyl)acrylamide] |  |  |  | Western Targets: DUB activity (DUB activity): USP9X and DUB activity: no effect; Western Targets: USP9X (USP9X): USP9X and DUB activity: no effect |
| CCCC(NC(=O)/C(C#N)=C/c1ncc[nH]1)c1ccc(OCCN(C)C)cc1 (stereo not drawn) [Compound 38, (E)-2-Cyano-N-(1-(4-(2-(dimethylamino)ethoxy)phenyl)butyl)-3-(1H-imidazol-2-yl)acrylamide] | Less sensitive | Inconclusive | 0.5 |  |
| CCCC(NC(=O)/C(C#N)=C/c1cccc(F)n1)c1ccc(OCCN2CCCC2)cc1 (stereo not drawn) [Compound 36, (E)-2-Cyano-3-(6-fluoropyridin-2-yl)-N-(1-(4-(2-(pyrrolidin-1-yl)ethoxy)phenyl)butyl)acrylamide] | Less sensitive | No inhibition | 2 |  |
| CCCC(NC(=O)/C(C#N)=C/c1cccc(F)n1)c1ccc(OCCN(CC)CC)cc1 (stereo not drawn) [Compound 34, (E)-2-Cyano-N-(1-(4-(2-(diethylamino)ethoxy)phenyl)butyl)-3-(6-fluoropyridin-2-yl)acrylamide] | Less sensitive | No inhibition | 2 |  |
| CCC[C@H](NC(=O)/C(C#N)=C/c1cccc(Cl)n1)c1ccccc1 [Compound 41, (S,E)-2-Cyano-3-(6-chloropyridin-2-yl)-N-(1-phenylbutyl)acrylamide] | Less sensitive | Inconclusive | 2 |  |
| CCCC(NC(=O)/C=C/c1cccc(Br)n1)c1ccc(OCCOCCOCCNC(=O)CCCC[C@@H]2SC[C@@H]3NC(=O)N[C@@H]32)cc1 (stereo partly drawn) [Compound 51, N-(2-(2-(2-(4-(1-((E)-3-(6-Bromopyridin-2-yl)acrylamido)butyl)phenoxy)ethoxy)ethoxy)ethyl)-5-((3aS,4S,6aR)-2-oxohexahydro-1H-thieno[3,4-d]imidazol-4-yl)pentanamide] |  |  | 0 |  |
| CCCC(NC(=O)/C(C#N)=C/c1ncc[nH]1)c1ccc(O)cc1 (stereo not drawn) [Compound 11, (E)-2-Cyano-N-(1-(4-hydroxyphenyl)butyl)-3-(1H-imidazol-2-yl)acrylamide] |  |  |  | Western Targets: DUB activity (DUB activity): USP9X and DUB activity: no effect; Western Targets: USP9X (USP9X): USP9X and DUB activity: no effect |
| CCCC(NC(=O)/C(C#N)=C/c1cccc(Br)n1)c1ccc(OCCN(CC)CC)cc1 (stereo not drawn) [Compound 33, (E)-3-(6-Bromopyridin-2-yl)-2-cyano-N-(1-(4-(2-(diethylamino)ethoxy)phenyl)butyl)acrylamide] | Less sensitive | Same | 2 to 2.5 |  |
